Data as given in patent publication US10968193B2, “Antidiabetic bicyclic compounds” (Merck Sharp & Dohme Corp., priority 2014, dated 2021).

target: T1, human GPR40 (Homo sapiens, UniProt O14842); assay: Inositol Phosphate Turnover (IP1) Assay 3; format: cell-based; settings: HEK cells stably expressing human GPR40
T1 construct: expressed in transfected cells; host or cells: HEK cells stably expressing the aequorin reporter
Method: Human and mouse GPR40 stable cell-lines were generated in CHO cells stably expressing NFAT BLA (Beta-lactamase). A human GPR40 stable cell-line was generated in HEK cells stably expressing the aequorin expressing reporter. The expression plasmids were transfected using lipofectamine (Life Technologies) following manufacturer's instructions. Stable cell-lines were generated following drug selection.
Inositol Phosphate Turnover (IP1) Assay 3:
The assay was performed in 384-well format. HEK cells stably expressing human GPR40 were plated at 7500 cells per well in growth medium (DMEM/10% fetal calf serum). Cell plates were then incubated 16 hours at 37 degrees in a 5% CO2 incubator.
Measurement of Inositol Phosphate Turnover (IP) was performed using the CisBio IP-One kit (Part number 62IPAPEB). After the 16 hour incubation, the growth media was removed by centrifugation using the BlueWasher (AusWasher GUI Ver. v1.0.1.8) Protocol #21—“Light Dry” and 10 ul of stimulation buffer (prepared as described in the kit) was added to each well. In a separate plate, compounds were diluted in DMSO (200-fold over the final concentration in the assay well) and 50 nl was acoustically transferred to the appropriate well in the assay cell plate. The plates were then incubated for 60 minutes at 37 degrees in a 5% CO2 incubator. 10 ul of detection buffer (also prepared as described in the IP-One kit) was added to each well and the plates were incubated at rt for 60 minutes in the dark. The plates were then read in a Perkin Elmer EnVision or equivalent reader able to measure FRET. Fluorescent ratio of emission at 665 and 620 nm was then converted to IP1 concentration by back calculating from an IP1 standard curve prepared at the time of the assay. Data is normalized to % activity using a reference compound and EC50s determined using a standard 4-parameter fit.

T1 sequence (O14842 whole entry): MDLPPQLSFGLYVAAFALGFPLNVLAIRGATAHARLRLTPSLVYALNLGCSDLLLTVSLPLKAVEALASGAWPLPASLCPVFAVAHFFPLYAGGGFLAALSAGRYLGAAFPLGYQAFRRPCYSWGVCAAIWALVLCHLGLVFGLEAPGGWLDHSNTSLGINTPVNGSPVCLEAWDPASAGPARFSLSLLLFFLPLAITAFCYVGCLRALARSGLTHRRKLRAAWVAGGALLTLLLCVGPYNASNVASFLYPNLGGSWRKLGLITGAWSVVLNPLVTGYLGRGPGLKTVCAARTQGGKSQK

| SMILES | EC50 |
| --- | --- |
| COc1cc(-c2ccc(C3CCc4ccc([C@H](C5CC5)[C@H](C)C(=O)O)cc4O3)c(CN3CCCCC3(C)C)c2)c(F)cn1 (single isomer, unassigned) [Example 128a] | 0.07 nM |
| COc1cc(-c2ccc(C3CCc4ccc([C@H](C5CC5)[C@H](C)C(=O)O)cc4O3)c(CN3CCCCC3(C)C)c2)c(F)cn1 (single isomer, unassigned) [Example 128b] | 1.2 nM |
| CCOc1cc(-c2ccc(C3CCc4ccc([C@H](C5CC5)[C@H](C)C(=O)O)cc4O3)c(CN(C)C(C)(C)C)c2)c(F)cn1 (single isomer, unassigned) [Example 132a] | 1.8 nM |
| CCOc1cc(-c2ccc(C3CCc4ccc([C@H](C5CC5)[C@H](C)C(=O)O)cc4O3)c(CN(C)C(C)(C)C)c2)c(F)cn1 (single isomer, unassigned) [Example 132b] | 106 nM |
| CCOc1cc(-c2ccc(C3CCc4ccc([C@H](C5CC5)[C@H](C)C(=O)O)cc4O3)c(CN3CCC[C@@H]3C)c2)c(F)cn1 (single isomer, unassigned) [Example 133] | 0.8 nM |
| COc1cc(-c2ccc(C3CCc4ccc([C@H](C5CC5)[C@H](C)C(=O)O)cc4O3)cc2C(CN2CCCC2)OC)ccn1 (single isomer, unassigned) [Example 177, (2S, 3R)-3-cyclopropyl-3-((R or S)-2-(3-((R or S)-1-methoxy-2-(pyrrolidin-1-yl)ethyl)-4-(2-methoxypyridin-4-yl)phenylchroman-7-yl)-2-methylpropanoic acid] | 231 nM |
| COc1cc(-c2ccc(C3CCc4ccc([C@H](C5CC5)[C@H](C)C(=O)O)cc4O3)cc2C(CN2CCCC2)OC)ccn1 (single isomer, unassigned) [Example 178] | 136 nM |
| CCN(CC)Cc1cc(C2CCc3ccc([C@H](C4CC4)[C@H](C)C(=O)O)cc3O2)c(F)cc1-c1ccnc(OC)c1 (single isomer, unassigned) [Example 181] | 14 nM |
| CCN(CC)Cc1cc(C2CCc3ccc([C@H](C4CC4)[C@H](C)C(=O)O)cc3O2)c(F)cc1-c1ccnc(OC)c1 (single isomer, unassigned) [Example 182] | 16 nM |
| COc1cc(-c2cc(F)c(C3CCc4ccc([C@H](C5CC5)[C@H](C)C(=O)O)cc4O3)cc2CN(C(C)C)C(C)C)ccn1 (single isomer, unassigned) [Example 183] | 0.35 nM |
| COc1cc(-c2cc(F)c(C3CCc4ccc([C@H](C5CC5)[C@H](C)C(=O)O)cc4O3)cc2CN(C(C)C)C(C)C)ccn1 (single isomer, unassigned) [Example 184] | 0.73 nM |
| CCN(Cc1cc(C2CCc3ccc([C@H](C4CC4)[C@H](C)C(=O)O)cc3O2)c(F)cc1-c1ccnc(OC)c1)C(C)C (single isomer, unassigned) [Example 185] | 4.4 nM |
| CCN(Cc1cc(C2CCc3ccc([C@H](C4CC4)[C@H](C)C(=O)O)cc3O2)c(F)cc1-c1ccnc(OC)c1)C(C)C (single isomer, unassigned) [Example 186] | 7.9 nM |
| COc1cc(-c2cc(F)c(C3CCc4ccc([C@H](C5CC5)[C@H](C)C(=O)O)cc4O3)cc2CN2CCCCC23CC3)ccn1 (single isomer, unassigned) [Example 187] | 0.4 nM |
| COc1cc(-c2cc(F)c(C3CCc4ccc([C@H](C5CC5)[C@H](C)C(=O)O)cc4O3)cc2CN2CCCCC23CC3)ccn1 (single isomer, unassigned) [Example 188] | 0.7 nM |
| COc1ccc(F)c(-c2ccc(C3CCc4ccc([C@H](C5CC5)[C@H](C)C(=O)O)cc4O3)cc2CN2CCCCC23CC3)n1 (single isomer, unassigned) [Example 189] | 5.1 nM |
| COc1cc(-c2ccc(C3CCc4ccc([C@H](C5CC5)[C@H](C)C(=O)O)cc4O3)cc2CN(C)C(C)(C)C)c(C#N)cn1 (single isomer, unassigned) [Example 193] | 1.5 nM |
| COc1cc(-c2ccc(C3CCc4ccc([C@H](C5CC5)[C@H](C)C(=O)O)cc4O3)cc2CN(C)C(C)(C)C)c(C#N)cn1 (single isomer, unassigned) [Example 194] | 1.1 nM |
| CCN(C)Cc1cc(C2CCc3ccc([C@H](C4CC4)[C@H](C)C(=O)O)cc3O2)ccc1-c1cc(OC)ncc1C#N (single isomer, unassigned) [Example 195] | 12 nM |

Now from value to molecule:

| EC50 | SMILES |
| --- | --- |
| 0.25 nM | COc1cc(-c2ccc(C3CCc4ccc([C@H](C5CC5)[C@H](C)C(=O)O)cc4O3)c(CN3CCC[C@@H]3C)c2)c(F)cn1 (single isomer, unassigned) [Example 129a] |
| 36 nM | COc1cc(-c2ccc(C3CCc4ccc([C@H](C5CC5)[C@H](C)C(=O)O)cc4O3)c(CN3CCC[C@@H]3C)c2)c(F)cn1 (single isomer, unassigned) [Example 129b] |
| 8.7 nM | COc1cc(-c2ccc(C3CCc4ccc([C@H](C5CC5)[C@H](C)C(=O)O)cc4O3)c(CN3CCCC[C@H]3C)c2)c(F)cn1 (single isomer, unassigned) [Example 130a] |
| 0.06 nM | COc1cc(-c2ccc(C3CCc4ccc([C@H](C5CC5)[C@H](C)C(=O)O)cc4O3)c(CN3CCCC[C@H]3C)c2)c(F)cn1 (single isomer, unassigned) [Example 130b] |
| 2.5 nM | CCOc1cc(-c2ccc(C3CCc4ccc([C@H](C5CC5)[C@H](C)C(=O)O)cc4O3)cc2CN(CC)CC)c(F)cn1 (single isomer, unassigned) [Example 171, (2S, 3R)-3-cyclopropyl-3-((R or S)-2-(3-((diethylamino)methyl)-4-(2-ethoxy-5-fluoropyridin-4-yl)phenyl)chroman-7-yl)-2-methylpropanoic acid] |
| 2.3 nM | CCOc1cc(-c2ccc(C3CCc4ccc([C@H](C5CC5)[C@H](C)C(=O)O)cc4O3)cc2CN(CC)CC)c(F)cn1 (single isomer, unassigned) [Example 172, (2S, 3R)-3-cyclopropyl-3-((S or R)-2-(3-((diethylamino)methyl)-4-(2-ethoxy-5-fluoropyridin-4-yl)phenyl)chroman-7-yl)-2-methylpropanoic acid] |
| 50 nM | CCOc1cc(-c2ccc(C3CCc4ccc([C@H](C5CC5)[C@H](C)C(=O)O)cc4O3)cc2CN2CCCC2)c(F)cn1 (single isomer, unassigned) [Example 173] |
| 27 nM | CCOc1cc(-c2ccc(C3CCc4ccc([C@H](C5CC5)[C@H](C)C(=O)O)cc4O3)cc2CN2CCCC2)c(F)cn1 (single isomer, unassigned) [Example 174] |
| 0.3 nM | COc1cc(-c2ccc(C3CCc4ccc([C@H](C5CC5)[C@H](C)C(=O)O)cc4O3)cc2CN2CC3CC3C2)c(C#N)cn1 (single isomer, unassigned) [Example 192] |
| 7.2 nM | CCN(C)Cc1cc(C2CCc3ccc([C@H](C4CC4)[C@H](C)C(=O)O)cc3O2)ccc1-c1cc(OC)ncc1C#N (single isomer, unassigned) [Example 196] |
| 4.7 nM | COc1cc(-c2ccc(C3CCc4ccc([C@H](C5CC5)[C@H](C)C(=O)O)c(F)c4O3)cc2CN2CCCC2)c(F)cn1 (single isomer, unassigned) [Example 198] |
| 5.7 nM | COc1cc(-c2ccc(C3CCc4ccc([C@H](C5CC5)[C@H](C)C(=O)O)c(F)c4O3)cc2CN2CCCC2)c(F)cn1 (single isomer, unassigned) [Example 199] |
| 1.5 nM | COc1cc(-c2ccc(C3CCc4ccc([C@H](C5CC5)[C@H](C)C(=O)O)c(F)c4O3)cc2CN2CCCCC2)c(F)cn1 (single isomer, unassigned) [Example 200] |
| 4.4 nM | COc1cc(-c2ccc(C3CCc4ccc([C@H](C5CC5)[C@H](C)C(=O)O)c(F)c4O3)cc2CN2CCCCC2)c(F)cn1 (single isomer, unassigned) [Example 201] |
| 0.16 nM | COc1cc(-c2ccc(C3CCc4ccc([C@H](C5CC5)[C@H](C)C(=O)O)c(F)c4O3)cc2CN2CCCCC23CC3)c(F)cn1 (single isomer, unassigned) [Example 202] |
| 0.16 nM | COc1cc(-c2ccc(C3CCc4ccc([C@H](C5CC5)[C@H](C)C(=O)O)c(F)c4O3)cc2CN2CCCCC23CC3)c(F)cn1 (single isomer, unassigned) [Example 203] |
| 2.1 nM | CCN(CC)Cc1cc(C2CCc3ccc([C@H](C4CC4)[C@H](C)C(=O)O)c(F)c3O2)ccc1-c1cc(OC)ncc1F (single isomer, unassigned) [Example 204] |
| 2.4 nM | CCN(CC)Cc1cc(C2CCc3ccc([C@H](C4CC4)[C@H](C)C(=O)O)c(F)c3O2)ccc1-c1cc(OC)ncc1F (single isomer, unassigned) [Example 205] |
| 1.3 nM | COc1cc(-c2ccc(C3CCc4ccc([C@H](C5CC5)[C@H](C)C(=O)O)c(F)c4O3)cc2CN2CCCC2(C)C)c(F)cn1 (single isomer, unassigned) [Example 206] |
| 1.3 nM | COc1cc(-c2ccc(C3CCc4ccc([C@H](C5CC5)[C@H](C)C(=O)O)c(F)c4O3)cc2CN2CCCC2(C)C)c(F)cn1 (single isomer, unassigned) [Example 207] |
| 0.73 nM | COc1cc(-c2ccc(C3CCc4ccc([C@H](C5CC5)[C@H](C)C(=O)O)c(F)c4O3)cc2CN2[C@H](C)CC[C@H]2C)c(F)cn1 (single isomer, unassigned) [Example 208] |
